# Measurements: US11629171B2, “Beta-hairpin peptidomimetics” (POLYPHOR AG, priority 2017, dated 2023)
# Where a SMILES comes first, the peptide text is derived from it. Bridges are numbered along the chain shown (N, C = ends). Roman numbers before positions name the chains, in order. [ ]: non-standard residue; d: D form. The star is where a group is joined. Thr(ol) = C[C@@H](O)[C@H](N)CO; Tle = CC(C)(C)[C@H](N)C(=O)O; Isovaleryl = CC(C)CC(=O)*; dDab = NCC[C@@H](N)C(=O)O; hSer = N[C@@H](CCO)C(=O)O; Isobutyryl = CC(C)C(=O)*; Dab = NCC[C@H](N)C(=O)O; Dap = NC[C@H](N)C(=O)O; NHCH2CH2OH = OCCN*
# Tests used:
# Assay type in all cases: cell-based
# [1] = tested on: Acinetobacter baumannii 872842; details: 872842
# Procedure, shortened: (§1)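 Two-fold peptide dilutions in polysorbate 80-containing (0.002% final) cation-adjusted Mueller-Hinton II broth were inoculated with about 10^6 CFU/mL. The MIC was taken as the lowest concentration, in μg/mL, preventing visible growth at 18-20 hours and 35° C.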
# [2] = tested on: Acinetobacter baumannii DSM 30008; details: DSM 30008
# Procedure, shortened: as §1
# [3] = tested on: Enterobacter cloacae 848840; details: 848840
# Procedure, shortened: as §1
# [4] = tested on: Escherichia coli 926415; details: 926415
# Procedure, shortened: as §1
# [5] = tested on: Escherichia coli ATCC 25922; details: ATCC 25922
# Procedure, shortened: as §1
# [6] = tested on: Klebsiella pneumoniae 968733; details: 968733
# Procedure, shortened: as §1
# [7] = tested on: Klebsiella pneumoniae SSI #3010; details: SSI #3010
# Procedure, shortened: as §1
# [8] = tested on: Pseudomonas aeruginosa ATCC 27853; details: ATCC 27853
# Procedure, shortened: as §1
# [9] = tested on: human red blood cells (hRBC); experiment: Hemolysis; details: red cells of human, 1 h, 200
# Procedure, shortened: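 hRBC washed 4× in PBS; 200 μg/mL peptide + 20% (v/v) hRBC, 1 h, 37° C, 300 rpm. Spin, supernatant ~7.5-fold diluted, OD540 blank corrected. % hemolysis = OD540 peptide / OD540 Triton X-100 × 100.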
SMILES,MIC [1] [µg/mL],Acinetobacter baumannii DSM 30008 MIC [2] [µg/mL],MIC [3] [µg/mL],MIC [4] [µg/mL],Escherichia coli ATCC 25922 MIC [5] [µg/mL],MIC [6] [µg/mL],Klebsiella pneumoniae SSI #3010 MIC [7] [µg/mL],Pseudomonas aeruginosa ATCC 27853 MIC [8] [µg/mL],Hemolysis at 200 μg/mL [9] [%],MIC [2] [µg/mL],MIC [5] [µg/mL],MIC [7] [µg/mL],MIC [8] [µg/mL]
CC(=O)N[C@H](C(=O)N[C@H]1CSSC[C@@H](C(=O)N[C@@H](CO)C(=O)N[C@H](CC(=O)O)C(N)=O)NC(=O)[C@H](C(C)C)NC(=O)[C@H](CO)NC(=O)[C@H](Cc2c[nH]c3ccccc23)NC(=O)[C@H](CO)NC(=O)[C@@H](CCN)NC(=O)[C@H](CCC(=O)N[C@@H](CCN)C(=O)N[C@H](C(=O)N[C@@H](CN)C(=O)N[C@H]2CCNC(=O)[C@H]([C@@H](C)O)NC(=O)[C@H](CCN)NC(=O)[C@H](CCN)NC(=O)[C@H](CC(C)C)NC(=O)[C@@H](CC(C)C)NC(=O)[C@H](CCN)NC2=O)[C@@H](C)O)NC(=O)[C@H](CCN)NC(=O)[C@H](Cc2ccc(O)cc2)NC1=O)C(C)C [Ex. 374] (I: Ac-VCY[Dab]E[dDab]SWSVCS[dD]-NH2 / II: [Dab]T[Dap][Dab][Dab][dL]L[Dab][Dab]T; disulfide I:2-I:11; amide I:5-II:N; lactam II:4-II:C),0.25,0.0625,0.25,0.5,0.0625,1,0.0625,0.125,<1,–,–,–,–
CC(=O)N[C@H](C(=O)N[C@H]1CSSC[C@@H](C(=O)NCC(=O)N[C@H](CO)C(N)=O)NC(=O)[C@H](C(C)C)NC(=O)[C@H](CO)NC(=O)[C@H](Cc2c[nH]c3ccccc23)NC(=O)[C@H](CO)NC(=O)[C@@H](CCN)NC(=O)[C@H](CCC(=O)N[C@@H](CCN)C(=O)N[C@H](C(=O)N[C@@H](CN)C(=O)N[C@H]2CCNC(=O)[C@H]([C@@H](C)O)NC(=O)[C@H](CCN)NC(=O)[C@H](CCN)NC(=O)[C@H](CC(C)C)NC(=O)[C@@H](CC(C)C)NC(=O)[C@H](CCN)NC2=O)[C@@H](C)O)NC(=O)[C@H](CCN)NC(=O)[C@H](Cc2ccc(O)cc2)NC1=O)C(C)C [Ex. 377] (I: Ac-VCY[Dab]E[dDab]SWSVCG[dS]-NH2 / II: [Dab]T[Dap][Dab][Dab][dL]L[Dab][Dab]T; disulfide I:2-I:11; amide I:5-II:N; lactam II:4-II:C),0.0625,0.01562,0.0625,0.125,0.01562,0.0625,0.03125,0.0625,<1,–,–,–,–
CC(=O)N[C@H](C(=O)N[C@H]1CSSC[C@@H](C(=O)N[C@@H](CO)C(=O)N[C@H](C)C(N)=O)NC(=O)[C@H](C(C)C)NC(=O)[C@H](CO)NC(=O)[C@H](Cc2c[nH]c3ccccc23)NC(=O)[C@H](CO)NC(=O)[C@@H](CCN)NC(=O)[C@H](CCC(=O)N[C@@H](CCN)C(=O)N[C@H](C(=O)N[C@@H](CN)C(=O)N[C@H]2CCNC(=O)[C@H]([C@@H](C)O)NC(=O)[C@H](CCN)NC(=O)[C@H](CCN)NC(=O)[C@H](CC(C)C)NC(=O)[C@@H](CC(C)C)NC(=O)[C@H](CCN)NC2=O)[C@@H](C)O)NC(=O)[C@H](CCN)NC(=O)[C@H](Cc2ccc(O)cc2)NC1=O)C(C)C [Ex. 378] (I: Ac-VCY[Dab]E[dDab]SWSVCS[dA]-NH2 / II: [Dab]T[Dap][Dab][Dab][dL]L[Dab][Dab]T; disulfide I:2-I:11; amide I:5-II:N; lactam II:4-II:C),0.0625,0.03125,0.0625,0.0625,0.0625,0.125,0.0625,0.0625,<1,–,–,–,–
CC(=O)N[C@H](C(=O)N[C@H]1CSSC[C@@H](C(=O)O)NC(=O)[C@H](C(C)C)NC(=O)[C@H](CO)NC(=O)[C@H](Cc2c[nH]c3ccccc23)NC(=O)[C@H](CO)NC(=O)[C@@H](CCN)NC(=O)[C@H](CCC(=O)N[C@@H](CCN)C(=O)N[C@H](C(=O)N[C@@H](CN)C(=O)N[C@H]2CCNC(=O)[C@H]([C@@H](C)O)NC(=O)[C@H](CCN)NC(=O)[C@H](CCN)NC(=O)[C@H](CC(C)C)NC(=O)[C@@H](CC(C)C)NC(=O)[C@H](CCN)NC2=O)[C@@H](C)O)NC(=O)[C@H](CCN)NC(=O)[C@H](Cc2ccc(O)cc2)NC1=O)C(C)C [Ex. 384] (I: Ac-VCY[Dab]E[dDab]SWSVC-OH / II: [Dab]T[Dap][Dab][Dab][dL]L[Dab][Dab]T; disulfide I:2-I:11; amide I:5-II:N; lactam II:4-II:C),2,1,2,4,0.125,>8,0.25,0.5,<1,–,–,–,–
CC(C)CC(=O)N[C@H]1CSSC[C@@H](C(=O)NCCO)NC(=O)[C@H](C(C)(C)C)NC(=O)[C@H](CO)NC(=O)[C@H](Cc2c[nH]c3ccccc23)NC(=O)[C@H]([C@@H](C)O)NC(=O)[C@@H](CCN)NC(=O)[C@H](CCC(=O)N[C@@H](CCN)C(=O)N[C@H](C(=O)N[C@@H](CCN)C(=O)N[C@H]2CCNC(=O)[C@H]([C@@H](C)O)NC(=O)[C@H](CCN)NC(=O)[C@H](CCN)NC(=O)[C@H](CC(C)C)NC(=O)[C@@H](CC(C)C)NC(=O)[C@H](CCN)NC2=O)[C@@H](C)O)NC(=O)[C@H](CN)NC(=O)[C@H](Cc2ccc(O)cc2)NC1=O [Example 1] (I: Isovaleryl-CY[Dap]E[dDab]TWS[Tle]C-NHCH2CH2OH / II: [Dab]T[Dab][Dab][Dab][dL]L[Dab][Dab]T; disulfide I:1-I:10; amide I:4-II:N; lactam II:4-II:C),1,–,4,1,–,2,–,–,<1,0.125,0.125,0.5,0.125
CC(C)CC(=O)N[C@H]1CSSC[C@@H](C(=O)N[C@H](CO)[C@@H](C)O)NC(=O)[C@H](C(C)(C)C)NC(=O)[C@H](CO)NC(=O)[C@H](Cc2c[nH]c3ccccc23)NC(=O)[C@H](CCO)NC(=O)[C@@H](CCN)NC(=O)[C@H](CCC(=O)N[C@@H](CCN)C(=O)N[C@H](C(=O)N[C@@H](CCN)C(=O)N[C@H]2CCNC(=O)[C@H]([C@@H](C)O)NC(=O)[C@H](CCN)NC(=O)[C@H](CCN)NC(=O)[C@H](CC(C)C)NC(=O)[C@@H](CC(C)C)NC(=O)[C@H](CCN)NC2=O)[C@@H](C)O)NC(=O)[C@H](CCN)NC(=O)[C@H](Cc2ccc(O)cc2)NC1=O [Example 2] (I: Isovaleryl-CY[Dab]E[dDab][hSer]WS[Tle]C[Thr(ol)] / II: [Dab]T[Dab][Dab][Dab][dL]L[Dab][Dab]T; disulfide I:1-I:10; amide I:4-II:N; lactam II:4-II:C),0.125,–,0.5,0.125,–,0.25,–,–,<1,0.125,0.125,0.5,0.25
CC(C)C[C@@H]1NC(=O)[C@@H](CC(C)C)NC(=O)[C@H](CCN)NC(=O)[C@@H](NC(=O)[C@H](CCN)NC(=O)[C@@H](NC(=O)[C@H](CCN)NC(=O)CC[C@@H]2NC(=O)[C@H](CCN)NC(=O)[C@H](Cc3ccc(O)cc3)NC(=O)[C@@H](NC(=O)C(C)C)CSSC[C@@H](C(=O)N[C@H](CO)[C@@H](C)O)NC(=O)[C@H](C(C)(C)C)NC(=O)[C@H](CO)NC(=O)[C@H](Cc3c[nH]c4ccccc34)NC(=O)[C@H](CCO)NC(=O)[C@@H](CCN)NC2=O)[C@@H](C)O)CCNC(=O)[C@H]([C@@H](C)O)NC(=O)[C@H](CCN)NC(=O)[C@H](CCN)NC1=O [Example 3] (I: Isobutyryl-CY[Dab]E[dDab][hSer]WS[Tle]C[Thr(ol)] / II: [Dab]T[Dab][Dab][Dab][dL]L[Dab][Dab]T; disulfide I:1-I:10; amide I:4-II:N; lactam II:4-II:C),0.125,–,2,0.25,–,0.25,–,–,<1,0.0625,0.125,0.125,0.125
